Laboratory results taken from patent US11053204B2, “Pyrimidinyloxy benzene derivatives as herbicides” (FMC Corporation, priority 2015, dated 2021).

How the values were obtained:
Type in all cases: in vivo
[1] = tested on: barnyardgrass (Echinochloa crus-galli); test: Test A postemergence, visual injury rating; settings: Echinochloa crus-galli, post-emergence, 240 h, 0 is no effect, 100 is complete control, read-out: Barnyardgrass plant response rating (0 to 100 scale)
How it was run: (§1)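 Scoring: eye-based comparison with untreated controls, 0 for no effect through 100 for complete control, at about day 10. Treatments: directed soil spray preemergence; foliar spray postemergence on 2–10 cm plants at the one- to two-leaf stage. Medium: loam soil with sand.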

[2] = tested on: blackgrass (Alopecurus myosuroides); test: Test A postemergence, visual injury rating; settings: Alopecurus myosuroides, post-emergence, 240 h, 0 is no effect, 100 is complete control, read-out: Blackgrass plant response rating (0 to 100 scale)
How it was run: as §1

[3] = tested on: galium (catchweed bedstraw, Galium aparine); test: Test A postemergence, visual injury rating; settings: Galium, post-emergence, 240 h, 0 is no effect, 100 is complete control, read-out: Galium plant response rating (0 to 100 scale)
How it was run: as §1

[4] = tested on: blackgrass (Alopecurus myosuroides); test: Test C preemergence, plant response rating; settings: scale 0 to 100; for Blackgrass plant response rating: preemergence
How it was run: (§2)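 Greenhouse plants rated visually against untreated controls 13–15 d after treatment, scale 0 = no effect to 100 = complete control. Postemergence sprays went onto potted plants 2–18 cm tall (1–4 leaves); preemergence sprays onto soil freshly sown in loam–sand or silt loam, chemicals formulated in non-phytotoxic solvent with surfactant.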

corn (Zea mays) = test: Test C preemergence, plant response rating; settings: scale 0 to 100; for Corn plant response rating: preemergence
How it was run: as §2

[5] = tested on: crabgrass, large (large crabgrass, Digitaria sanguinalis); test: Test C preemergence, plant response rating; settings: scale 0 to 100; for Crabgrass, Large plant response rating: preemergence
How it was run: as §2

[6] = tested on: foxtail, giant (giant foxtail, Setaria faberii); test: Test C preemergence, plant response rating; settings: scale 0 to 100; for Foxtail, Giant plant response rating: preemergence
How it was run: as §2

[7] = tested on: lambsquarters (Chenopodium album); test: Test C preemergence, plant response rating; settings: scale 0 to 100; for Lambsquarters plant response rating: preemergence
How it was run: as §2

[8] = tested on: morningglory (Ipomoea coccinea); test: Test C preemergence, plant response rating; settings: scale 0 to 100; for Morningglory plant response rating: preemergence
How it was run: as §2

[9] = tested on: nutsedge, yellow (yellow nutsedge, Cyperus esculentus); test: Test C preemergence, plant response rating; settings: scale 0 to 100; for Nutsedge, Yellow plant response rating: preemergence
How it was run: as §2

[10] = tested on: oilseed rape (Brassica napus); test: Test C preemergence, plant response rating; settings: scale 0 to 100; for Oilseed Rape plant response rating: preemergence
How it was run: as §2

[11] = tested on: ragweed (common ragweed, Ambrosia elatior); test: Test C preemergence, plant response rating; settings: scale 0 to 100; for Ragweed plant response rating: preemergence
How it was run: as §2

[12] = tested on: ryegrass, Italian (Italian ryegrass, Lolium multiflorum); test: Test C preemergence, plant response rating; settings: scale 0 to 100; for Ryegrass, Italian plant response rating: preemergence
How it was run: as §2

soybean (Glycine max) = test: Test C preemergence, plant response rating; settings: scale 0 to 100; for Soybean plant response rating: preemergence
How it was run: as §2

[13] = tested on: velvetleaf (Abutilon theophrasti); test: Test C preemergence, plant response rating; settings: scale 0 to 100; for Velvetleaf plant response rating: preemergence
How it was run: as §2

[14] = tested on: waterhemp (common waterhemp, Amaranthus rudis); test: Test C preemergence, plant response rating; settings: scale 0 to 100; for Waterhemp plant response rating: preemergence
How it was run: as §2

[15] = tested on: wheat (winter wheat, Triticum aestivum); test: Test C preemergence, plant response rating; settings: scale 0 to 100; for Wheat plant response rating: preemergence
How it was run: as §2

CCCOC(=O)c1c(Br)cccc1Oc1ncc(Cl)cn1 [Compound 13, propyl 2-bromo-6-[(5-chloro-2-pyrimidinyl)oxy]benzoate]
5%: Corn plant response rating (crop injury, 0 = no effect, 100 = complete kill) at 16 g/ha (corn (Zea mays); Zea mays, pre-emergence, Preemergence, 16 g ai/ha) | pest or weed control at 16 g/ha ([8]; Ipomoea, pre-emergence, Preemergence, 16 g ai/ha) | pest or weed control at 31 g/ha ([8]; Ipomoea, pre-emergence, Preemergence, 31 g ai/ha) | pest or weed control at 31 g/ha ([9]; Cyperus, pre-emergence, Preemergence, 31 g ai/ha) | plant injury at 16 g/ha (soybean (Glycine max); Glycine max, pre-emergence, Preemergence, 16 g ai/ha) | plant injury at 31 g/ha (soybean (Glycine max); Glycine max, pre-emergence, Preemergence, 31 g ai/ha) | plant injury at 31 g/ha ([15]; Triticum aestivum, pre-emergence, Preemergence, 31 g ai/ha)
0: Blackgrass plant response rating ([4]; 4 g ai/ha) | Blackgrass plant response rating ([4]; 8 g ai/ha) | Corn plant response rating (corn (Zea mays); 4 g ai/ha) | Corn plant response rating (corn (Zea mays); 8 g ai/ha) | Foxtail, Giant plant response rating ([6]; 4 g ai/ha) | Foxtail, Giant plant response rating ([6]; 8 g ai/ha) | Lambsquarters plant response rating ([7]; 4 g ai/ha) | Morningglory plant response rating ([8]; 4 g ai/ha) | Morningglory plant response rating ([8]; 8 g ai/ha) | Nutsedge, Yellow plant response rating ([9]; 4 g ai/ha) | Nutsedge, Yellow plant response rating ([9]; 8 g ai/ha) | Oilseed Rape plant response rating ([10]; 4 g ai/ha) | Oilseed Rape plant response rating ([10]; 8 g ai/ha) | Ragweed plant response rating ([11]; 4 g ai/ha) | Ragweed plant response rating ([11]; 8 g ai/ha) | Ryegrass, Italian plant response rating ([12]; 4 g ai/ha) | Ryegrass, Italian plant response rating ([12]; 8 g ai/ha) | Soybean plant response rating (soybean (Glycine max); 4 g ai/ha) | Soybean plant response rating (soybean (Glycine max); 8 g ai/ha) | Wheat plant response rating ([15]; 4 g ai/ha) | Wheat plant response rating ([15]; 8 g ai/ha)
0%: pest or weed control at 16 g/ha ([4]; Alopecurus myosuroides, pre-emergence, Preemergence, 16 g ai/ha) | pest or weed control at 31 g/ha ([4]; Alopecurus myosuroides, pre-emergence, Preemergence, 31 g ai/ha) | pest or weed control at 16 g/ha ([6]; Setaria faberi, pre-emergence, Preemergence, 16 g ai/ha) | pest or weed control at 16 g/ha ([9]; Cyperus, pre-emergence, Preemergence, 16 g ai/ha) | plant injury at 16 g/ha ([10]; Brassica napus, pre-emergence, Preemergence, 16 g ai/ha) | pest or weed control at 16 g/ha ([11]; Ambrosia artemisiifolia, pre-emergence, Preemergence, 16 g ai/ha) | pest or weed control at 16 g/ha ([12]; Lolium multiflorum, pre-emergence, Preemergence, 16 g ai/ha) | pest or weed control at 31 g/ha ([12]; Lolium multiflorum, pre-emergence, Preemergence, 31 g ai/ha) | plant injury at 16 g/ha ([15]; Triticum aestivum, pre-emergence, Preemergence, 16 g ai/ha)
85%: pest or weed control at 31 g/ha ([5]; Digitaria sanguinalis, pre-emergence, Preemergence, 31 g ai/ha)
70%: pest or weed control at 500 g/ha ([2]; 500 g ai/ha) | pest or weed control at 31 g/ha ([13]; Abutilon theophrasti, pre-emergence, Preemergence, 31 g ai/ha)
15%: pest or weed control at 31 g/ha ([7]; Chenopodium album, pre-emergence, Preemergence, 31 g ai/ha)
10%: Corn plant response rating (crop injury, 0 = no effect, 100 = complete kill) at 31 g/ha (corn (Zea mays); Zea mays, pre-emergence, Preemergence, 31 g ai/ha) | pest or weed control at 31 g/ha ([11]; Ambrosia artemisiifolia, pre-emergence, Preemergence, 31 g ai/ha)
80%: pest or weed control at 125 g/ha ([1]; 125 g ai/ha) | pest or weed control at 16 g/ha ([14]; Amaranthus tuberculatus, pre-emergence, Preemergence, 16 g ai/ha)
5: Lambsquarters plant response rating ([7]; 8 g ai/ha) | Velvetleaf plant response rating ([13]; 4 g ai/ha) | Waterhemp plant response rating ([14]; 4 g ai/ha)
100%: pest or weed control at 500 g/ha ([1]; 500 g ai/ha) | pest or weed control at 125 g/ha ([3]; 125 g ai/ha) | pest or weed control at 500 g/ha ([3]; 500 g ai/ha) | pest or weed control at 31 g/ha ([14]; Amaranthus tuberculatus, pre-emergence, Preemergence, 31 g ai/ha)
10: Velvetleaf plant response rating ([13]; 8 g ai/ha) | Waterhemp plant response rating ([14]; 8 g ai/ha)
25: Crabgrass, Large plant response rating ([5]; 4 g ai/ha)
60%: pest or weed control at 16 g/ha ([5]; Digitaria sanguinalis, pre-emergence, Preemergence, 16 g ai/ha)
50%: pest or weed control at 16 g/ha ([7]; Chenopodium album, pre-emergence, Preemergence, 16 g ai/ha) | plant injury at 31 g/ha ([10]; Brassica napus, pre-emergence, Preemergence, 31 g ai/ha)
30: Crabgrass, Large plant response rating ([5]; 8 g ai/ha)
95%: pest or weed control at 31 g/ha ([6]; Setaria faberi, pre-emergence, Preemergence, 31 g ai/ha)
30%: pest or weed control at 125 g/ha ([2]; 125 g ai/ha)
20%: pest or weed control at 16 g/ha ([13]; Abutilon theophrasti, pre-emergence, Preemergence, 16 g ai/ha)
